Data: article PMC3599263 (DARU Journal of Pharmaceutical Sciences, 2013)
Read-outs that look alike come from different tables or passages of the source.

How the values were obtained:
BuChE from equine serum = target: T1, BuChE from equine serum (Equus caballus, UniProt P81908); experiment: biochemical
T1 construct: BuChE from equine serum; purchased Sigma-Aldrich (Steinheim, Germany); host or cells: equine serum

[1] = target: AChE (E.C. 3.1.1.7, Type V-S, from electric eel) (Electrophorus electricus, UniProt O42275); experiment: biochemical
Sequence of AChE (E.C. 3.1.1.7, Type V-S, from electric eel) (O42275 24-633): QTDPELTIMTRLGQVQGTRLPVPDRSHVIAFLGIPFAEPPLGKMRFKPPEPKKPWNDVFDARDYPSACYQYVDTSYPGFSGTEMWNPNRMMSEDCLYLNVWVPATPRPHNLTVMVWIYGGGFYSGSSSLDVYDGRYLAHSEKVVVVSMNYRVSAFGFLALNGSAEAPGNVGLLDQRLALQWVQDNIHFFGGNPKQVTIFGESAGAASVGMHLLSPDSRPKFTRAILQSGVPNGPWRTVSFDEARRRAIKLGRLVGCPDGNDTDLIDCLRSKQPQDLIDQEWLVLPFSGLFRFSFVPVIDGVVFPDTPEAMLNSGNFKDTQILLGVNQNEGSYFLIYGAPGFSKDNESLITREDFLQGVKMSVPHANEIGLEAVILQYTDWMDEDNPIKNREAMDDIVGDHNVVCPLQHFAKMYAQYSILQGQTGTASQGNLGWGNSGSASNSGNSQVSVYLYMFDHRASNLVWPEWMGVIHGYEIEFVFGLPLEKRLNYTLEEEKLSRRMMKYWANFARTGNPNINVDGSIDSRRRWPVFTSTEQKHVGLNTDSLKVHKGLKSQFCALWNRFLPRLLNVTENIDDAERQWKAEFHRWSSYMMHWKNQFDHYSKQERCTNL

T1 sequence (P81908 whole entry): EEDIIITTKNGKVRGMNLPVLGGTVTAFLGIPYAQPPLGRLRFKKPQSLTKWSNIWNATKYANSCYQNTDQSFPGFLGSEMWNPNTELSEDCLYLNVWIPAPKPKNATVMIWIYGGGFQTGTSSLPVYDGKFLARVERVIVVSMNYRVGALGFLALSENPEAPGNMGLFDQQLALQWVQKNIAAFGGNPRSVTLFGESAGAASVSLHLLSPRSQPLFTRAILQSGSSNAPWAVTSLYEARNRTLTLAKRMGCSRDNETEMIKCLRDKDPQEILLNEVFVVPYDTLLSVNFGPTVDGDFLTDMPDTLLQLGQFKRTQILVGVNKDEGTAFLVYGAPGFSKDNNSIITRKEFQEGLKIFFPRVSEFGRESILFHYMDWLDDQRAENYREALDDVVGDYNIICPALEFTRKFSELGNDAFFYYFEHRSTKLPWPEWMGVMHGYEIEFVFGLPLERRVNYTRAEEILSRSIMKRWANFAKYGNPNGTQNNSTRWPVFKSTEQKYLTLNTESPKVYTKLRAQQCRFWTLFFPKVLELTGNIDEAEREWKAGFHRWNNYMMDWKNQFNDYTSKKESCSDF

Row | Structure (SMILES) | IC50 (BuChE from equine serum) [µM] | IC50 [1] [µM] | IC50 (BuChE from equine serum; Ellman's method, 25°C, pH 8.0, 15 min pre-incubation, mean ± SD of three independent experiments, read-out: BuChE (IC50 ± SD)) [µM]
1 | COc1cc2c(cc1OC)C(=O)/C(=C/c1cc[n+](Cc3ccccc3)cc1)O2 [5a, (Z)-1-Benzyl-4-((5,6-dimethoxy-3-oxobenzofuran-2(3H)-ylidene)methyl) pyridinium bromide] | 1.4 ± 0.085 | 0.086 ± 0.0109 | –
2 | COc1cc2c(cc1OC)C(=O)/C(=C/c1cc[n+](Cc3ccc(C)cc3)cc1)O2 [5g, (Z)-1-(4-Methylbenzyl)-4-((5,6-dimethoxy-3-oxobenzofuran-2(3H)-ylidene)methyl) pyridinium chloride] | – | 0.514 ± 0.0295 | 7.6 ± 0.26
